Earlier results as cited in patent US5792763A, “Serotonin 5-HT1F agonists” (Eli Lilly and Company, priority 1997, dated 1998).

Assays:
[1] = tested on: neurogenic inflammation; conditions: background section
[2] = tested on: cephalic vascular smooth muscle; conditions: background section
[3] = background section
[4] = background section; remark: listed apart in the source

## CNS(=O)(=O)Cc1ccc2[nH]cc(CCN(C)C)c2c1 [sumatriptan]
[1]
  blockade of neurogenic inflammation: blocked
[2]
  contraction of cephalic vascular smooth muscle: contract cephalic vascular smooth muscle
[3]
  effectiveness in the treatment of migraine: effective in the treatment of migraine
[4]
  crossing of the blood-brain barrier: does not cross the blood-brain barrier
